Structures are written as SMILES.

What all share (format): in vivo
Common to all, as to details: Konzett data

In one experiment the test system is Hist. In words: Konzett test, Hist (bronchodilator activity).
The next experiment has as its system 5-HT. Nature of the experiment: Konzett test, 5-HT (bronchodilator activity).
In the next experiment the test system is Ach. Nature of the experiment: Konzett test, Ach (bronchodilator activity).

As to `CCCCCC(C)(O)/C=C/C1C(O)CC(=O)C1C/C=C\CCCCO` (racemic) [dl-1,11,15-trihydroxymethyl-9-oxo-15-methyl-5-cis-13-trans prostadiene], the “Hist (ED50 g/kg)” value with Hist was determined as 0.00075 g/kg. Moreover, the “5-HT (ED50 g/kg)” value in the experiment on 5-HT was found to be 0.0083 g/kg. The “Ach (ED50 g/kg)” value with Ach came to 0.0043 g/kg.

The values above are taken from patent US4291175A, “1-Hydroxymethyl-11-deoxy-15-hydroxy-prosten-1-ol-derivatives” (American Cyanamid Company, priority 1980, dated 1981).
